According to US20220411448A1, “CHROMENE-4-ONE DERIVATIVES AS BRAIN-DERIVED NEUROTROPHIC FACTOR (BDNF) MIMETICS” (FLORATEK PHARMA AG, priority 2019, published 2022):

Key:
IL-6 = experiment: LPS stimulation of BV-2 microglia: IL-6; type: cell-based, murine; settings: between 0.3 and 3 μM, BV2, LPS 500 ng/ml, 24 h
Description: The murine microglial cell line BV-2 was grown in DMEM medium supplemented with 10% FCS, 1% penicillin/streptomycin and 2 mM L-glutamine (culture medium). For LPS stimulation assay, 10000 BV-2 cells per well (uncoated 96 well plates) were plated and after 24 hours, medium was changed to serum-free treatment medium (DMEM, 2 mM L-glutamine) and cells were maintained in treatment medium for the remaining culture period. 1 h after changing cells to treatment medium, the test items were added 1 hour before LPS stimulation (Sigma-Aldrich; L6529; 1 mg/ml stock in ddH2O, final concentration in well: 500 ng/ml (dilutions in medium)). Cells treated with vehicle, cells treated with LPS alone, as well as cells treated with LPS plus reference dexamethasone at 10 μM item served as controls.
Following 24 h of stimulation, cell supernatants were collected for the NO, and cytokine measurements. Levels of 2 cytokines (TNF-α, IL-6) were measured by an immunosorbent assay (U-PLEX Custom […] Cytokine, Mesoscale Discovery) according to the instructions of the manufacturer and evaluated in comparison to calibration curves provided in the kit. […] Absorbance was measured at 570 nm. Nitrosative stress was evaluated in the study samples in comparison to a NaNO2 standard curve. […]

[1] = test system: human hepatocytes from pooled donor lot; experiment: Hepatic toxicity: cell viability by ATP content; type: cell-based; settings: 1 to 100 μM, 24 h exposure
Description: (§1) Cryopreserved human hepatocytes from pooled donor lot (Bioreclamation IVT) were seeded on collagen I coated 96-well plates (Corning Biocoat) at 0.55×10^5 cells per well in 120 μl InVitroGRO™ CP medium (BioIVT), including additives Torpedo Antibiotic mix (BioIVT). After cell attachment (4-6 hours post seeding) cell culture medium was replaced with fresh medium and incubated for 72 hours at 37° C. under 5% CO2. Thereafter, hepatocytes were exposed to test or control compounds in 100 μl of InVitroGRO™ HI medium, including additives Torpedo Antibiotic mix at concentrations presented below. Cytotoxicity and cell viability were evaluated based on LDH release in medium and ATP content in the cells after 24 hours exposure phase.
(§2) Cytotoxicity potency of test compounds SND118, SND121, SND122 and SND123 was assayed in human hepatocytes from pooled donor lot at three concentrations; 1, 10 and 100 μM. Cytotoxicity was assayed from medium samples after 24 h exposure period with test compounds by measuring membrane integrity (LDH leakage), coupled to fluorescent signal. In parallel, cell viability was assayed by the means of ATP content, indicating the metabolically competent cell activity. LDH and ATP assay kits were sourced from Promega. ATP content was measured based on luciferase catalysed reaction generating stable bioluminescent signal. […]

[2] = test system: human hepatocytes from pooled donor lot; experiment: Hepatic toxicity: cytotoxicity by LDH leakage; type: cell-based; settings: 1 to 100 μM, 24 h exposure
Description: as §1, §2

Structure (SMILES): O=c1cc(-c2ccc(CCCC[P+](c3ccccc3)(c3ccccc3)c3ccccc3)cc2)oc2c(O)c(O)ccc12 [SND118, 4-[4-(7,8-dihydroxy-4-oxo-chromen-2-yl)phenyl]butyltriphenylphosphonium bromide]
- level of IL-6 in response to LPS stimulation (IL-6): significantly decreased
- ATP content (cell viability) [1]: 72-103%
- Cytotoxicity (LDH leakage) [2]: 7-10%
